Assay results published in patent US20260235618A1, “MICROBEADS WITH RATIOMETRIC LANTHANIDE ENCODING FOR DRUG SCREENING” (CZ Biohub SF, LLC, priority 2022, published 2026).
Entries after “also recorded” stand apart in the source; their conditions may differ.

Molecular target: Cdc20 (Homo sapiens, UniProt Q12834)
Assay: Multiplexed binding assay of Cdc20 to peptides on spectrally encoded beads, with and without small molecule (per-bead fluorescence of labeled antibody)
Conditions: bead-bound D-Box peptides; per-bead fluorescence intensity of fluorescently-labeled antibody recognizing bound Cdc20; vs control without Apcin (FIG. 2)
Source text: FIG. 2 provides data illustrating the effect of the small molecule Apcin on the binding between Cdc20 and different peptide sequences. Binding was quantified by measuring the per-bead fluorescence intensity of a fluorescently-labeled antibody that recognizes bound Cdc20. […] The control is the left bar for each of the peptides.
In one illustrative assay, a library of peptide-bound microbeads is generated by synthesizing binding site peptides directly on microbeads. Beads are pooled and then incubated with the protein of interest in the presence or absence of a modulator or candidate biding agent. The beads are then typically washed and the amount of signal from a label directly or indirectly attached to the protein of interest that is bound to each bead is determined. […]
For illustration, binding site peptides can be from proteins that are binding partners of any protein of interest, e.g., a signaling protein. […] In some embodiments, such a bead, or pool of such beads, is deposited in a compartment, e.g., a microwell plate such as a 96-well plate, with a signaling protein and a candidate agent to be evaluated, such as a small molecule. […] Use of multiple peptide sequences (e.g., for different binding sites or different affinities) can serve as an internal control and provide the ability to quantitatively assess a loss of signal without concerns regarding assay quality (e.g., FIG. 2). […]

Chain of Cdc20 (Q12834 whole entry, species assumed): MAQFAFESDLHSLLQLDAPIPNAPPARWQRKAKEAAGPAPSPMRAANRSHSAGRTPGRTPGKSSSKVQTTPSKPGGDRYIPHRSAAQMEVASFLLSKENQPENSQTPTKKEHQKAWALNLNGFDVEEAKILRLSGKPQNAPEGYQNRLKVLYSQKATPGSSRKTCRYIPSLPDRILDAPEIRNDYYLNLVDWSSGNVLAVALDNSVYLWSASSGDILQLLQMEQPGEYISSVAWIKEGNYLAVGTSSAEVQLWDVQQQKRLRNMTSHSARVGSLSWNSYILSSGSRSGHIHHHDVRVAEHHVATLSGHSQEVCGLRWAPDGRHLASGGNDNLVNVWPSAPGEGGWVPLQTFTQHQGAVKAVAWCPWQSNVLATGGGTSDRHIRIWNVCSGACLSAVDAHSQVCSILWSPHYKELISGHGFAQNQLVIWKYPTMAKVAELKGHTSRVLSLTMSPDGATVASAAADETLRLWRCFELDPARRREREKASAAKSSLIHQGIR

For `Cc1ncc([N+](=O)[O-])n1CCOC(=O)NC(Nc1ncccn1)C(Cl)(Cl)Cl` (stereo not shown) [Apcin], the “Effect on binding between Cdc20 and D-Box-containing peptide sequences” value was “blocks the binding site between Cdc20 and D-Box-containing sequences; also recorded: selectively prevented the binding of Cdc20 to D-Box-containing peptides”.
